Source: article doi:10.1101/2025.08.13.670152v1 (biorxiv, 2025)

Target: CHI3L1/galectin-3 (CHI3L1-His and galectin-3-GST) (Homo sapiens, UniProt P36222)
Experiment: AlphaLISA, inhibition of CHI3L1/galectin-3 interaction
Type: biochemical
Details: read-out: % inhibition at 100 μM

Chain of CHI3L1/galectin-3 (CHI3L1-His and galectin-3-GST) (P36222 22-383): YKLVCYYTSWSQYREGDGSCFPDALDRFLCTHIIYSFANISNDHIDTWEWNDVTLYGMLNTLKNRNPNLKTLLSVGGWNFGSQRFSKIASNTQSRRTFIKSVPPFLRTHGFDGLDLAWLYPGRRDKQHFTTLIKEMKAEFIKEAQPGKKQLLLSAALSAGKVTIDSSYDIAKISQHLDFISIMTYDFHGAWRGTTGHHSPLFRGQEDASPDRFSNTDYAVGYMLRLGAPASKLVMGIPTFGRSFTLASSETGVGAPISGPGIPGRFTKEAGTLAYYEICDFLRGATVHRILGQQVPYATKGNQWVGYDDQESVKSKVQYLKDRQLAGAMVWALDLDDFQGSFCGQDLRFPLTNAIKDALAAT
Chain of CHI3L1/galectin-3 (CHI3L1-His and galectin-3-GST) (P17931 2-250 partner): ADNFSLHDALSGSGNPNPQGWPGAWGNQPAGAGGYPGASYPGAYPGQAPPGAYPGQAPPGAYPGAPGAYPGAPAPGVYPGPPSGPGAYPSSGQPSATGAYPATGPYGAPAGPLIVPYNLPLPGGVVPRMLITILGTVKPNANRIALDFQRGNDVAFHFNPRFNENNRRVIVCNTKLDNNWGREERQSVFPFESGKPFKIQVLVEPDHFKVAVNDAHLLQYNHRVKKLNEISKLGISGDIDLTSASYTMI

inhibition at 100 µM: 27.5 ± 3.1%
SMILES: CC(C)c1cccc(-c2ccc3ncn(C)c(=O)c3c2)c1 [3C13]
